Test results reported in patent publication US20240083839A1, “COMPOSITIONS AND METHODS FOR TREATING NEURODEGENERATIVE DISEASES AND DISORDERS” (The Regents of the University of California, priority 2020, published 2024).
Where “and” joins values, the source holds several entries; their conditions need not be identical. Identical values can stand only once. Counter-ions that a name gives are not always drawn.

How the values were obtained:
[1] = tested on: PRMT8 protein levels in E4-N2a cells; assay: Immunoblot of PRMT8 protein levels in E4-N2a cells; assay type: cell-based, murine; conditions: 10 μM
Source text: (§1) Due both the sequence homology and functional similarity of PRMT family members, in follow-up experiments PRMT 1, 4, and 8 inhibitors as well as assays for inhibition by those PRMTs were used. […] This profile may be due to its binding to an allosteric site on the PRMT8 enzyme and needs further kinetic analysis. […] The mode & inhibition kinetics to be investigated in the renewal grant.

[2] = tested on: SirT1 levels in N2a-E4 cells; assay: SirT1 levels by AlphaLISA in ApoE4-transfected N2a cells; assay type: cell-based, murine
Experimental: Prompted by the emerging importance of the associations between ApoE4 and the expression/protein levels of SirT1, high-throughput screening (HTS) of the UCLA compound library was performed using AlphaLISA to detect SirT1 levels in murine neuroblastoma cells stably transfected with ApoE4 (E4-N2a) to identify SirT1 enhancers. […] In the in vivo study, mice were treated orally at 40 mkd (20 mg/kg BID) for 56 days and underwent assessment of cognition in the Novel Object Recognition (NOR) testing paradigm. […] The performance of A03-treated E4-AD mice (FIG. 5A) improved to level of non-transgenic vehicle-treated mice.

[3] = PAMPA
[4] = tested on: SirT1 levels in SH-SY5Y cells; assay: SirT1 in SH-SY5Y cells transiently transfected with ApoE4; assay type: cell-based, human
[5] = target: T1, PRMT4 (Homo sapiens, UniProt Q86X55); assay: Cell-free PRMT enzyme activity assay, PRMT4; assay type: biochemical; conditions: A03 at 5 μM
T1 sequence (Q86X55 1-608): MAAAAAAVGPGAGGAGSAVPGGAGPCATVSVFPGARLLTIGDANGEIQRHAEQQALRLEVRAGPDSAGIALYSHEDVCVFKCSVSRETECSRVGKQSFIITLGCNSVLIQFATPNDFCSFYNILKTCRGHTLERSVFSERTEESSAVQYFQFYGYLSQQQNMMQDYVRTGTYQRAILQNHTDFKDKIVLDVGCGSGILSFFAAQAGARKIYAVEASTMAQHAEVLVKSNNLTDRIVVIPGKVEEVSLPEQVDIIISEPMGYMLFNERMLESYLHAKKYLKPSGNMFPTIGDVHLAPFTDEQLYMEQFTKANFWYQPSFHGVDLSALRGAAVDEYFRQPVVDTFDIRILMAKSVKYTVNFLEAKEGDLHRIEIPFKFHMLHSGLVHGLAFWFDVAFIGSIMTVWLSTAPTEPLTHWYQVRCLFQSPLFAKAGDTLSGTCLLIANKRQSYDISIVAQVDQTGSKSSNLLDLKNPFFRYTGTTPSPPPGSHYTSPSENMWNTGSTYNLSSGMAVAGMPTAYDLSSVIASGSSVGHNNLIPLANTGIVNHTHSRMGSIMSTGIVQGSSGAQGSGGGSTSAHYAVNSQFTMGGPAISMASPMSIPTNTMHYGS
Source text: as §1

[6] = tested on: SirT1 mRNA; assay: SirT1 mRNA level in N2a-E4 cells; assay type: cell-based, mouse; conditions: 10 hour time point
[7] = tested on: ApoE4 and RNA polymerase II binding to the SirT1 promoter; assay: ChIP and real time PCR of SirT1 promoter binding in N2a-E4 cells; assay type: cell-based, mouse; conditions: 6 hour treatment (A03 50 μM), versus DMSO
Experimental: Cells were then fixed with formaldehyde, lysed with SDS buffer, and sonicated using a temperature-controlled Epishear sonication platform at −20° C. to obtain DNA fragments between 200-1000 bp. An EZ-ChIP kit (EMD Millipore) was then used for chromatin immunoprecipitation using anti-ApoE4 mAb (Novus Biologicals) and anti-RNA Polymerase II mAb (Millipore) antibodies. After ChIP crosslinks were reversed and purified ChIP DNA was then analyzed by real time quantitative PCR using SYBR green master mix (Thermo) in a CFX Connect Real-Time PCR Detection System (Bio-Rad) using primers to amplify the ApoE4 binding site in the mouse SirT1 promoter: 5′[…]3′ and 5′[…]3′ (amplicon size of 125 bp). The Signals from each sample were normalized with signal of the input followed by the delta-delta-Ct method and fold change calculated with respect to the vehicle (DMSO).

[8] = target: PRMT8 (Homo sapiens, UniProt Q9NR22); assay: Cell-free PRMT enzyme activity assay, PRMT8; assay type: biochemical; conditions: for PRMT8 inhibition: A03 at 5 μM
Source text: as §1
Testing of additional A03 analogs are ongoing. For affinity purification, DDL215 that was used through clicking to beads. […] An initial correlation between cell-free PRMT8 inhibition and neuronal SirT1 enhancement (in cells) at 5 μM was seen (FIG. 10B).

[9] = target: PRMT1 (Homo sapiens, UniProt Q99873); assay: Cell-free PRMT enzyme activity assay, PRMT1; assay type: biochemical; conditions: A03 at 5 μM
Source text: Due both the sequence homology and functional similarity of PRMT family members, in follow-up experiments PRMT 1, 4, and 8 inhibitors as well as assays for inhibition by those PRMTs were used. […] The mode & inhibition kinetics to be investigated in the renewal grant.

[10] = tested on: E4-AD mice; assay: Oral treatment of ApoE4-expressing AD model mice (NOR, brain SirT1); assay type: in vivo, mouse; conditions: ApoE4:5×FAD-TR transgenic mice
Experimental: Prompted by the emerging importance of the associations between ApoE4 and the expression/protein levels of SirT1, high-throughput screening (HTS) of the UCLA compound library was performed using AlphaLISA to detect SirT1 levels in murine neuroblastoma cells stably transfected with ApoE4 (E4-N2a) to identify SirT1 enhancers. […] In the in vivo study, mice were treated orally at 40 mkd (20 mg/kg BID) for 56 days and underwent assessment of cognition in the Novel Object Recognition (NOR) testing paradigm.

Sequence of PRMT8 (Q9NR22 whole entry, species assumed): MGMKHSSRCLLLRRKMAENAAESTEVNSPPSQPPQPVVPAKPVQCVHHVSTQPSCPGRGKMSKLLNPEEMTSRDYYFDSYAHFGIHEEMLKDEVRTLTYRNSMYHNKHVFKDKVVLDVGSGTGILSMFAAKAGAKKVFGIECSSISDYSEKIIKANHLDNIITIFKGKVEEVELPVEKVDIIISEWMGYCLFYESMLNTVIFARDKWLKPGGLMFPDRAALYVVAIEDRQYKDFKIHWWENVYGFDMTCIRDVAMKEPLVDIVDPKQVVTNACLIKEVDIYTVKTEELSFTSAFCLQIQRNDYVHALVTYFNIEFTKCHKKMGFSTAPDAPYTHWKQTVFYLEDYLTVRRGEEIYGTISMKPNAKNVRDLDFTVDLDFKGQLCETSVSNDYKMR
Sequence of PRMT1 (Q99873 whole entry, species assumed): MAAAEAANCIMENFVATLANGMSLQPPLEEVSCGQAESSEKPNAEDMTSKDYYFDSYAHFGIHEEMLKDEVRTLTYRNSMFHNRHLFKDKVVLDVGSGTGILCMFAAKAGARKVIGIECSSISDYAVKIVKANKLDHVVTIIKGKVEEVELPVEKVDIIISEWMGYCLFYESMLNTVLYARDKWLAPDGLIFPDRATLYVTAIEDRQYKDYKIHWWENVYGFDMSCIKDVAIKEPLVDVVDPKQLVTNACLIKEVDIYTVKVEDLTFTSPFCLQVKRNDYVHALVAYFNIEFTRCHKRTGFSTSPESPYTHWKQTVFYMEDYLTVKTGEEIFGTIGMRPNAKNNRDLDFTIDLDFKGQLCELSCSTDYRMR

Compound	SirT1 SOμM [2]	SirT1 SμM [2]	PAMPA [3]	further results
CC(N)C(=O)OC(C)(C)Cc1ccc(Cl)cc1 (stereo not drawn) [A03, alaproclate]	C (C = 100% increase versus control)	A (A >20%)	3.9 and 4.04	PRMT8 protein levels [1]: does not alter PRMT8 protein levels; EC50 ([2]; Mus musculus, E4-N2a cells, AlphaLISA, read-out: SirT1 increase EC50): ~2300 nM; SirT1 increase ([2]; N2a-E4 cells): increased SirT1 in a dose dependent fashion; SirT1 increase [4]: SirT1 increases similar to those seen in the E4-N2a cells; PRMT4 inhibition [5]: not PRMT1 or 4; SirT1 mRNA level higher than DMSO control [6]: 12%; ApoE4 binding to the SirT1 promoter [7]: pronounced decrease; RNA polymerase binding to the SirT1 promoter [7]: increased binding; PRMT8 inhibition, ranking ([8]; cell-free assay, 0.25 μM): greatest inhibition; PRMT8 inhibition ([8]; cell-free assay): inhibit PRMT8; IC50 ([8]; cell-free assay, read-out: PRMT8 inhibition IC50): ~125 nM; dose at maximum of PRMT8 inhibition dose response ([8]; hormetic profile, plateau up to 10 μM): 0.25 µM; PRMT1 inhibition [9]: not PRMT1 or 4
CC(N)C(=O)OC(C)(C)Cc1ccncc1 (stereo not drawn) [MP48]				ApoE4 binding to the SirT1 promoter [7]: decreased ApoE4; RNA polymerase binding to the SirT1 promoter [7]: increased RNA polymerase binding; SirT1 mRNA levels in the brain [10]: increase SirT1 mRNA levels
C[C@H](N)C(=O)NC(C)(Cc1ccc(F)cc1)Cc1ccc(F)cc1 [MP-51, (S)-2-amino-N-(1,3-bis(4-fluorophenyl)-2-methylpropan-2-yl)propanamide]	C (C = 100% increase versus control)	A (A >20%)	2.25 and 2.38	
C[C@@H](N)C(=O)NC(C)(Cc1ccc(F)cc1)Cc1ccc(F)cc1 [MP-52, (R)-2-amino-N-(1,3-bis(4-fluorophenyl)-2-methylpropan-2-yl)propanamide]	A, A (A >20%)	A, A (A >20%)	1	
CC(=O)c1ccc(CC(C)(C)NC(=O)[C@H](C)N)cc1 [MP-53, (S)—N-(1-(4-acetylphenyl)-2-methylpropan-2-yl)-2-aminopropanamide]	B (B >50%)	A (A >20%)	0.49	
C[C@H](N)C(=O)Nc1ccc2ccccc2c1 [MP-55, (S)-2-amino-N-(naphthalen-2-yl)propanamide]	B (B >50%)	A (A >20%)	5.06	
C[C@H](N)C(=O)NC1Cc2ccccc2C1 [MP-56, (S)-2-amino-N-(2,3-dihydro-1H-inden-2-yl)propanamide]	C (C = 100% increase versus control)	A (A >20%)	1.81	
C[C@H](N)C(=O)Nc1ccccc1-c1ccc(F)cc1 [MP-57, (S)-2-amino-N-(4′-fluoro-[1,1′-biphenyl]-2-yl)propanamide]	B (B >50%)	A (A >20%)	1.6(2)	
C[C@H](N)C(=O)NC(C)(C)Cc1ccc(CC(F)(F)F)cc1 [MP-58, (S)-2-amino-N-(2-methyl-1-(4-(2,2,2-trifluoroethyl)phenyl)propan-2-yl)propanamide]	C (C = 100% increase versus control)	A (A >20%)	1.28	
C#Cc1ccc(CC(C)(C)NC(=O)[C@H](C)N)cc1 [MP-59, (S)-2-amino-N-(1-(4-ethynylphenyl)-2-methylpropan-2-yl)propanamide]	A, A (A >20%)	A, A (A >20%)	2.49	
CC(C)(Cc1ccc(Br)cc1)NC(=O)[C@@H](N)CCC(=O)O [MP-61, (S)-4-amino-5-((1-(4-bromophenyl)-2-methylpropan-2-yl)amino)-5-oxopentanoic acid]	B (B >50%)	A (A >20%)	0.29	
C#CC[C@H](N)C(=O)NC(C)(C)Cc1ccc(Br)cc1 [MP-62, (S)-2-amino-N-(1-(4-bromophenyl)-2-methylpropan-2-yl)pent-4-ynamide]	B (B >50%)	A (A >20%)	1.67	
COC(=O)N[C@H]1Cc2ccccc2CNC1=O [MP-70]	A, A (A >20%)	A, A (A >20%)	0.59	
O=C1NCN[C@H]1Cc1ccc(Cl)cc1 [MP-72, (S)-5-(4-chlorobenzyl)imidazolidin-4-one]	A, A (A >20%)	A, A (A >20%)	11.07(2)	
O=C(N[C@H]1Cc2ccccc2CNC1=O)OCc1ccccc1 [MP-73, (S)-benzyl (3-oxo-2,3,4,5-tetrahydro-1H-benzo[c]azepin-4-yl)carbamate]	a, a (a <250%)	a, a (a <250%)	0.68	
O=C(N[C@H]1Cc2ccccc2CNC1=O)OCC1c2ccccc2-c2ccccc21 [MP-74, (S)-(9H-fluoren-9-yl)methyl (3-oxo-2,3,4,5-tetrahydro-1H-benzo[c]azepin-4-yl)carbamate]	a, a (a <250%)	a, a (a <250%)	1.55	
CC(N)C(=O)OC(C)(C)Cc1ccc(C(F)(F)F)cc1.Cl (stereo not drawn) [MP-76, 2-methyl-1-(4-(trifluoromethyl)phenyl)propan-2-yl 2-aminopropanoate hydrochloride]	A, A (A >20%)	A, A (A >20%)	2.71	
C[C@H](NC(=O)OC(C)(C)C)C(=O)NC(C)(C)Cc1ccc(C(F)(F)F)cc1 [MP-77, (S)-tert-butyl (1-((2-methyl-1-(4-(trifluoromethyl)phenyl)propan-2-yl)amino)-1-oxopropan-2-yl)carbamate]	a, a (a <250%)	a, a (a <250%)	1.61	
C[C@H](N)C(=O)NC(C)(C)Cc1ccc(C(F)(F)F)cc1 [MP-78, (S)-2-amino-N-(2-methyl-1-(4-(trifluoromethyl)phenyl)propan-2-yl)propanamide hydrochloride]	B (B >50%)	A (A >20%)	1.93	
CC(C)(N)C(=O)NCCc1ccc(Cl)cc1 [MP-79, 2-amino-N-(4-chlorophenethyl)-2-methylpropanamide]	B (B >50%)	A (A >20%)	1.74	
CC(C)Oc1ccc(-c2c[nH]cc2CN(C)CCN)cc1 [MS23]				PRMT4 inhibition [5]: inhibits all 3 enzymes; PRMT8 inhibition ([8]; cell-free assay): inhibits all 3 enzymes
